The values that follow come from patent US8772303B2, “Pharmaceutical formulation” (Glaxo Group Limited, priority 2004, dated 2014).

The structures appear in SMILES notation.

A short description of data set [1]: Measurement of the substituted uracil formula (II) in simulated intestinal fluid (hydrolysis of active). The format is physicochemical. To be noted: for Levels of formula (II) in simulated intestinal fluid: 80 mg active in 250 mL fasted-state SIF, 37° C., 50 rpm. The protocol: To simulate in vitro the propensity of active tablets to give rise to abnormal smells in the human intestine, active equivalent to 80 mg was immersed in 250 mL simulated intestinal fluid (corresponding to the fasted state in humans) held at 37° C. and stirred at 50 rpm in a USP2 dissolution apparatus. This is chemically equivalent to a tablet whose enteric coat has been destroyed and whose core has subsequently disintegrated.
The level of formula (II) in solution was monitored over time, by withdrawing a small sample of the fluid and comparing its LC-MS response to that of a matrix-matched external standard (i.e. synthetic formula (II)).

Data set [2] in a line: Measurement of the substituted uracil formula (II) in simulated gastric fluid (hydrolysis of active). The following applies: for Levels of Formula (II) in simulated gastric fluid: 60 mg active in 250 mL SGF, 37° C., 50 rpm. The format is physicochemical. From the text: Compounds of Formula (I) hydrolyse, particularly under conditions where pH corresponds to that typically prevailing in the human stomach, to form a thiol and a uracil in a 1:1 stoichiometric ratio. The thiol has a smell characteristic of compounds of its class, the intensity of the smell increasing with the concentration of the thiol. Thus the concentration of the uracil is a surrogate marker for the intensity of the smell.
To simulate in vitro the effect of enteric-coating on the propensity of 1-(N-(2-(Diethylamino)ethyl)-N-(4-(4-trifluoromethylphenyl)benzyl)aminocarbonylmethyl)-2-(4-fluorobenzyl)thio-5,6-trimethylenepyrimidin-4-one as the free base (called “active” in this example) to give rise to abnormal smells in vivo, a two-armed study was performed. In both arms, 60 mg of active was immersed in 250 mL simulated gastric fluid held at 37° C. and stirred at 50 rpm in a USP2 dissolution apparatus. In one arm, the active was present as an enteric-coated tablet. In the other arm, active was present as the unformulated drug substance, which is chemically equivalent to a tablet lacking an enteric coat.
The uracil produced by the active is N-[2-(diethylamino)ethyl]-2-(2,4-dioxo-2,3,4,5,6,7-hexahydro-1H-cyclopenta[d]pyrimidin-1-yl)-N-{[4′-(trifluoromethyl)-4-biphenylyl]methyl}acetamide, as shown in Formula (II): […]
In both arms, the level of formula (II) in solution was monitored over time, by withdrawing a small sample of the fluid and comparing its LC-MS response to that of a matrix-matched external standard (i.e. synthetic formula (II)).

Turning to `CCN(CC)CCN(Cc1ccc(-c2ccc(C(F)(F)F)cc2)cc1)C(=O)Cn1c(SCc2ccc(F)cc2)nc(=O)c2c1CCC2` [Unformulated drug, 1-(N-(2-(Diethylamino)ethyl)-N-(4-(4-trifluoromethylphenyl)benzyl)aminocarbonylmethyl)-2-(4-fluorobenzyl)thio-5,6-trimethylenepyrimidin-4-one], the “Levels of formula (II) in simulated intestinal fluid” value was 2.99 ng/mL in data set [1] (480 min) and 8.58 ng/mL in data set [1] (1440 min). For the same compound, the “Propensity to form formula (II) in simulated intestinal fluid” value in data set [1] (in contrast to behaviour in simulated gastric fluid) was “low propensity”. In addition, the “Levels of Formula (II) in simulated gastric fluid” value in data set [2] (0 min, QL 1.71 ng/mL) is 6270 ng/mL; in data set [2] (5 min, QL 1.71 ng/mL), 6570 ng/mL; in data set [2] (10 min, QL 1.71 ng/mL), 7180 ng/mL; in data set [2] (15 min, QL 1.71 ng/mL) it was 7970 ng/mL; in data set [2] (30 min, QL 1.71 ng/mL) it was 9270 ng/mL; in data set [2] (45 min, QL 1.71 ng/mL), 11450 ng/mL. For the same compound, the “Levels of Formula (II) in simulated gastric fluid” value in data set [2] (60 min) was 13110 ng/mL; in data set [2] (120 min), 18940 ng/mL; in data set [2] (240 min), 25250 ng/mL; in data set [2] (480 min), 62910 ng/mL; in data set [2] (1440 min) it was 135600 ng/mL. Also, the “Reduction by the enteric coat of the level of formula (II) formed by active” value in data set [2] (simulated gastric fluid, enteric coated tablet versus unformulated drug) was 4 orders of magnitude.
